In patent US20230085307A1, “PYRIDAZINONE COMPOUND AND HERBICIDE” (NISSAN CHEMICAL CORPORATION, priority 2019, published 2023):

Assays:
oval-leafed pondweed [1] = experiment: Test Example 1: herbicidal activity, application before weed generation under submerged conditions (Table 16, symbol C); assay type: in vivo, oval-leafed pondweed (Monochoria vaginalis); settings: 320 g/ha applied herbicide
In short: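 Emulsion formulation, water-diluted to set dose, was put onto the flooded surface (4 cm depth, alluvial soil) the same day weeds were sown and 2.5-leaf rice transplanted. After 3 weeks at 25-30 °C under glass, each species was rated 0 (≤5% kill) to 5 (≥90% kill).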

green foxtail [2] = experiment: Test Example 4: herbicidal effect by soil treatment (Table 19, symbol G); assay type: in vivo, green foxtail (Setaria viridis); settings: for G: green foxtail, herbicidal effect rating: amount of applied herbicide 320 g/ha
In short: (§1)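 Emulsion of test compound, water-diluted to predetermined amount, sprayed on soil after sowing (seed depth ~1.5 cm, sterilized diluvial soil). Greenhouse, 25–30° C. Effect graded at three weeks post-spray.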

velvetleaf [3] = experiment: Test Example 5: herbicidal effect by foliage application, plastic box (Table 20, symbol M); assay type: in vivo, velvetleaf (Abutilon theophrasti); settings: foliage application, 320 g/ha, evaluated three weeks after application
In short: (§2)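 Post-emergence foliar test in sterilized diluvial soil. Compound applied as water-diluted emulsion at a predetermined rate to 14-day-old plants; evaluation at three weeks.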

wild oat [4] = experiment: Test Example 5: herbicidal effect by foliage application, plastic box (Table 20, symbol I); assay type: in vivo, wild oat (Avena fatua); settings: foliage application, 320 g/ha, evaluated three weeks after application
In short: as §2

wild oat [5] = experiment: Test Example 4: herbicidal effect by soil treatment (Table 19, symbol I); assay type: in vivo, wild oat (Avena fatua); settings: for I: wild oat, herbicidal effect rating: amount of applied herbicide 320 g/ha
In short: as §1

velvetleaf [6] = experiment: Test Example 4: herbicidal effect by soil treatment (Table 19, symbol M); assay type: in vivo, velvetleaf (Abutilon theophrasti); settings: for M: velvetleaf, herbicidal effect rating: amount of applied herbicide 320 g/ha
In short: as §1

rice flat sedge = experiment: Test Example 3: herbicidal effect by foliage application, Wagner pot (Table 18, symbol E); assay type: in vivo, rice flat sedge (Cyperus iria); settings: for herbicidal effect on E: rice flat sedge: amount of applied herbicide 320 g/ha
In short: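 Plants were sown in alluvial soil held under 0.1–0.5 cm standing water and grown 14 days in a greenhouse at 25–30 °C. An emulsifiable formulation, water-diluted to the set dose, was then sprayed onto the foliage, and effects were scored three weeks later using previously defined criteria.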

persian speedwell = experiment: Test Example 5: herbicidal effect by foliage application, plastic box (Table 20, symbol R); assay type: in vivo, Persian speedwell (Veronica persica); settings: foliage application, 320 g/ha, evaluated three weeks after application
In short: as §2

redroot pigweed = experiment: Test Example 4: herbicidal effect by soil treatment (Table 19, symbol N); assay type: in vivo, redroot pigweed (Amaranthus retroflexus); settings: for N: redroot pigweed, herbicidal effect rating: amount of applied herbicide 320 g/ha
In short: as §1

Italian ryegrass [7] = experiment: Test Example 5: herbicidal effect by foliage application, plastic box (Table 20, symbol K); assay type: in vivo, Italian ryegrass (Lolium multiflorum); settings: foliage application, 320 g/ha, evaluated three weeks after application
In short: as §2

chickweed = experiment: Test Example 4: herbicidal effect by soil treatment (Table 19, symbol P); assay type: in vivo, common chickweed (Stellaria media); settings: for P: chickweed, herbicidal effect rating: amount of applied herbicide 320 g/ha
In short: as §1

oval-leafed pondweed [8] = experiment: Test Example 2: herbicidal activity, application during weed generation under submerged conditions (Table 17, symbol C); assay type: in vivo, oval-leafed pondweed (Monochoria vaginalis); settings: AAH 320 g/ha; application during weed generation, submerged conditions
In short: (§3)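 Herbicide emulsion, diluted with water to the chosen amount, is applied onto 4 cm floodwater over alluvial soil where the weeds were co-sown and raised at 25–30° C. Application timing: 1–2 leaves. Assessment: three weeks afterwards.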

blackgrass = experiment: Test Example 4: herbicidal effect by soil treatment (Table 19, symbol J); assay type: in vivo, blackgrass (Alopecurus myosuroides); settings: for J: blackgrass, herbicidal effect rating: amount of applied herbicide 320 g/ha
In short: as §1

southern crabgrass = experiment: Test Example 5: herbicidal effect by foliage application, plastic box (Table 20, symbol F); assay type: in vivo, southern crabgrass (Digitaria ciliaris); settings: foliage application, 320 g/ha, evaluated three weeks after application
In short: as §2

Italian ryegrass [9] = experiment: Test Example 4: herbicidal effect by soil treatment (Table 19, symbol K); assay type: in vivo, Italian ryegrass (Lolium multiflorum); settings: for K: Italian ryegrass, herbicidal effect rating: amount of applied herbicide 320 g/ha
In short: as §1

green foxtail [10] = experiment: Test Example 5: herbicidal effect by foliage application, plastic box (Table 20, symbol G); assay type: in vivo, green foxtail (Setaria viridis); settings: foliage application, 320 g/ha, evaluated three weeks after application
In short: as §2

late watergrass = experiment: Test Example 2: herbicidal activity, application during weed generation under submerged conditions (Table 17, symbol A); assay type: in vivo, late watergrass (Echinochloa oryzicola); settings: AAH 320 g/ha; application during weed generation, submerged conditions
In short: as §3

SMILES | Herbicidal effect on C: oval-leafed pondweed (grade 0-5) (oval-leafed pondweed [1]) | herbicidal effect on M: velvetleaf (velvetleaf [3]) | herbicidal effect on I: wild oat (wild oat [4]) | herbicidal effect on R: persian speedwell (persian speedwell) | herbicidal effect on K: Italian ryegrass (Italian ryegrass [7]) | herbicidal effect rating, C: oval-leafed pondweed (oval-leafed pondweed [8]) | herbicidal effect on F: southern crabgrass (southern crabgrass) | herbicidal effect on G: green foxtail (green foxtail [10]) | herbicidal effect rating, A: late watergrass (late watergrass) | G: green foxtail, herbicidal effect rating (green foxtail [2]) | I: wild oat, herbicidal effect rating (wild oat [5]) | M: velvetleaf, herbicidal effect rating (velvetleaf [6]) | herbicidal effect on E: rice flat sedge (rice flat sedge) | N: redroot pigweed, herbicidal effect rating (redroot pigweed) | P: chickweed, herbicidal effect rating (chickweed) | J: blackgrass, herbicidal effect rating (blackgrass) | K: Italian ryegrass, herbicidal effect rating (Italian ryegrass [9]) | other results
Cc1nn(C)c(=O)c(-c2c(-c3ccc4c(c3)OCCO4)sc3ccc(F)cc23)c1O [2-092] | 2 (Herbicidal rate of 20% or more and less than 40%) | 5 (Herbicidal rate of 90% or more (almost completely withered)) | 3 (Herbicidal rate of 40% or more and less than 70%) | 5 (Herbicidal rate of 90% or more (almost completely withered)) | 4 (Herbicidal rate of 70% or more and less than 90%) | 4 (Herbicidal rate of 70% or more and less than 90%) | 4 (Herbicidal rate of 70% or more and less than 90%) | 4 (Herbicidal rate of 70% or more and less than 90%) | 0 (Herbicidal rate of 5% or less (almost no effect)) | – | – | – | – | – | – | – | – | herbicidal effect rating, G: green foxtail (green foxtail [2]; 320 g/ha): 2 (Herbicidal rate of 20% or more and less than 40%); herbicidal effect rating, I: wild oat (wild oat [5]; 320 g/ha): 0 (Herbicidal rate of 5% or less (almost no effect)); herbicidal effect rating, M: velvetleaf (velvetleaf [6]; 320 g/ha): 5 (Herbicidal rate of 90% or more (almost completely withered)); herbicidal effect on E (rice flat sedge), rating 0-5 (rice flat sedge; 320 g/ha): 5 (Herbicidal rate of 90% or more (almost completely withered)); herbicidal effect rating, N: redroot pigweed (redroot pigweed; 320 g/ha): 4 (Herbicidal rate of 70% or more and less than 90%); herbicidal effect rating, P: chickweed (chickweed; 320 g/ha): 4 (Herbicidal rate of 70% or more and less than 90%); herbicidal effect rating, J: blackgrass (blackgrass; 320 g/ha): 0 (Herbicidal rate of 5% or less (almost no effect)); herbicidal effect rating, K: Italian ryegrass (Italian ryegrass [9]; 320 g/ha): 1 (Herbicidal rate of 5% or more and less than 20%)
Cc1nn(C)c(=O)c(-c2c(-c3ccc(C(F)(F)F)cc3)sc3ccc(Cl)cc23)c1O [2-111] | 0 (Herbicidal rate of 5% or less (almost no effect)) | 3 (Herbicidal rate of 40% or more and less than 70%) | 0 (Herbicidal rate of 5% or less (almost no effect)) | 5 (Herbicidal rate of 90% or more (almost completely withered)) | 3 (Herbicidal rate of 40% or more and less than 70%) | 0 (Herbicidal rate of 5% or less (almost no effect)) | 0 (Herbicidal rate of 5% or less (almost no effect)) | 0 (Herbicidal rate of 5% or less (almost no effect)) | 2 (Herbicidal rate of 20% or more and less than 40%) | 0 (Herbicidal rate of 5% or less (almost no effect)) | 0 (Herbicidal rate of 5% or less (almost no effect)) | 0 (Herbicidal rate of 5% or less (almost no effect)) | 3 (Herbicidal rate of 40% or more and less than 70%) | 5 (Herbicidal rate of 90% or more (almost completely withered)) | 0 (Herbicidal rate of 5% or less (almost no effect)) | 5 (Herbicidal rate of 90% or more (almost completely withered)) | 3 (Herbicidal rate of 40% or more and less than 70%) | –
CCCC(=O)Oc1c(C)nn(C)c(=O)c1-c1c(-c2ccccc2OC)sc2ccc(C)cc12 [2-139] | 1 (Herbicidal rate of 5% or more and less than 20%) | 3 (Herbicidal rate of 40% or more and less than 70%) | 1 (Herbicidal rate of 5% or more and less than 20%) | 4 (Herbicidal rate of 70% or more and less than 90%) | 1 (Herbicidal rate of 5% or more and less than 20%) | 0 (Herbicidal rate of 5% or less (almost no effect)) | 3 (Herbicidal rate of 40% or more and less than 70%) | 3 (Herbicidal rate of 40% or more and less than 70%) | 3 (Herbicidal rate of 40% or more and less than 70%) | 0 (Herbicidal rate of 5% or less (almost no effect)) | 0 (Herbicidal rate of 5% or less (almost no effect)) | 0 (Herbicidal rate of 5% or less (almost no effect)) | 4 (Herbicidal rate of 70% or more and less than 90%) | 0 (Herbicidal rate of 5% or less (almost no effect)) | 5 (Herbicidal rate of 90% or more (almost completely withered)) | 1 (Herbicidal rate of 5% or more and less than 20%) | 1 (Herbicidal rate of 5% or more and less than 20%) | –
C=Cc1ccc2sc(-c3ccccc3OC)c(-c3c(O)c(C)nn(C)c3=O)c2c1 [2-185] | 5 (Herbicidal rate of 90% or more (almost completely withered)) | – | – | – | – | 0 (Herbicidal rate of 5% or less (almost no effect)) | – | – | 3 (Herbicidal rate of 40% or more and less than 70%) | 0 (Herbicidal rate of 5% or less (almost no effect)) | 0 (Herbicidal rate of 5% or less (almost no effect)) | 0 (Herbicidal rate of 5% or less (almost no effect)) | 2 (Herbicidal rate of 20% or more and less than 40%) | 5 (Herbicidal rate of 90% or more (almost completely withered)) | 0 (Herbicidal rate of 5% or less (almost no effect)) | 0 (Herbicidal rate of 5% or less (almost no effect)) | 0 (Herbicidal rate of 5% or less (almost no effect)) | herbicidal effect on M: velvetleaf (criteria 0-5) (velvetleaf [3]): 5 (Herbicidal rate of 90% or more (almost completely withered)); herbicidal effect on I: wild oat (criteria 0-5) (wild oat [4]): 0 (Herbicidal rate of 5% or less (almost no effect)); herbicidal effect on R: persian speedwell (criteria 0-5) (persian speedwell): 4 (Herbicidal rate of 70% or more and less than 90%); herbicidal effect on K: Italian ryegrass (criteria 0-5) (Italian ryegrass [7]): 0 (Herbicidal rate of 5% or less (almost no effect)); herbicidal effect on F: southern crabgrass (criteria 0-5) (southern crabgrass): 2 (Herbicidal rate of 20% or more and less than 40%); herbicidal effect on G: green foxtail (criteria 0-5) (green foxtail [10]): 3 (Herbicidal rate of 40% or more and less than 70%)
